PMC12621189, “Optimization of Selective and CNS Penetrant Alkyne-Based TREK Inhibitors: The Discovery and Characterization of ONO-9517601 (VU6022856) and ONO-7927846 (VU6024391)” (Journal of Medicinal Chemistry, 2025)
pIC50: −log10 of the molar value.

Key:
[1] = tested on: MK-801 challenged mouse; parameters: method as in earlier work; conditions: IP, ref 24 (Tanaka et al., ACS Med. Chem. Lett. 2025); cited from earlier work
[2] = parameters: method as in earlier work; conditions: ref 24 (Tanaka et al., ACS Med. Chem. Lett. 2025); cited from earlier work
[3] = parameters: method as in earlier work; conditions: ref 24 (Tanaka et al., ACS Med. Chem. Lett. 2025); cited from earlier work; remark: listed apart in the source
[4] = parameters: method as in earlier work; conditions: ref 24 (Tanaka et al., ACS Med. Chem. Lett. 2025); cited from earlier work; remark: listed apart in the source
[5] = parameters: method as in earlier work; conditions: ref 24 (Tanaka et al., ACS Med. Chem. Lett. 2025); cited from earlier work; remark: listed apart in the source
[6] = Liver microsome intrinsic clearance, rat; type: in vitro ADME; conditions: pH 7.4; rat liver microsomes, predicted intrinsic clearance; read-out: LMS CLINT rat
Description: (§1) were incubated in 100 mM potassium phosphate pH 7.4 buffer with 3 mM MgCl2 at 37 °C with constant shaking. After a 5 min preincubation, the reaction was initiated by the addition of NADPH (1 mM). At selected time intervals (0, 3, 7, 15, 25, and 45 min), aliquots were taken and subsequently placed into a 96-well plate containing cold acetonitrile with internal standard (50 ng/mL carbamazepine). Plates were then centrifuged at 3000 rcf (4 °C) for 10 min, and the supernatant was transferred to a separate 96-well plate and diluted 1:1 with water for LC/MS/MS analysis. The in vitro half-life ( 1/2, min, Eq. 1), intrinsic clearance (CLint, mL/min/kg, Eq. 2), and subsequent predicted hepatic clearance (CLhep, mL/min/kg, Eq. 3) was determined employing the […]
(§2) where k represents the slope from linear regression analysis of the natural log percent remaining of a test compound as a function of incubation time […]
(§3) (2) CLint = in vitroT x mg microsomes x gram liver x kg body wt ascale-up factors: of 20 (human) or 45 (rat) […]
(§4) where Qh (hepatic blood flow, mL/min/kg) is 21 (human) or 70 (rat).
(§5) LC/MS/MS Bioanalysis of Samples from Plasma Protein Binding and Intrinsic Clearance […]
(§6) Samples were analyzed on a Thermo Electron TSQ Quantum Ultra triple quad mass spectrometer (San Jose, CA) via electrospray ionization (ESI) with two Themo Electron Accella pumps (San Jose, CA), and a Leap Technologies CTC PAL autosampler (Carrboro, NC). Analytes were […]

[7] = Plasma protein binding, human (equilibrium dialysis); type: in vitro ADME; conditions: pH 7.4, read-out: PPB human (converted)
Description: (§7) Plasma protein binding and Brain homogenate binding: Determination of fraction unbound (f u) in plasma was conducted in vitro via equilibrium dialysis using HTDialysis (HTD) membrane plates. The top half of the plate was filled with 100 uL of Dubelco’s Phosphate Buffered Saline, pH 7.4 (DPBS). Compounds were diluted into plasma from each species (5 µM final concentration), which was aliquoted in triplicate to the ‘bottom half’ of the prepared HTD plate wells. The HTD plate was sealed and incubated for 6 hours at 37 °C. Following incubation, each well (both top and bottom halves) were transferred (20 µL) to the corresponding wells of a 96-shallow-well (V-bottom) plate. The daughter plates were then matrix-matched (DPBS side wells received equal volume of plasma, and plasma side wells received equal volume of DPBS), and extraction solution (120 µL; acetonitrile containing 50 nM carbamazepine as IS) was added to all wells of both daughter plates to precipitate protein and extract test article. The plates were then sealed and centrifuged (3500 rcf) for 10 minutes at ambient temperature. Supernatant (60 µL) from each well of the daughter plates was then transferred to the corresponding wells of new daughter plates (96-shallow-well, V bottom) containing water (Milli-Q, 60 µL/well), and the plates were sealed in preparation for LC-MS/MS analysis (see LC-MS/MS analysis method below).
(§8) The unbound fraction (f u) was calculated following the equation below, and mean values for each species were calculated from 3 replicates. […]
(§9) Fraction unbound for both plasma and brain samples was determined using Equation 4.
(§10) Equation 4 Determination of fraction unbound in plasma. […]

[8] = Liver microsome intrinsic clearance, human; type: in vitro ADME; conditions: pH 7.4; human liver microsomes, predicted intrinsic clearance; read-out: LMS CLINT human
Description: as §1, §2, §3, §4, §5, §6

[9] = Liver microsome intrinsic clearance, mouse; type: in vitro ADME; conditions: mouse liver microsomes, predicted intrinsic clearance; read-out: LMS CLINT mouse
[10] = Plasma protein binding, mouse; type: in vitro ADME; conditions: mouse, plasma, pH 7.4, mouse plasma, bound; read-out: PPB mouse (converted)
Description: as §7, §8, §9, §10

[11] = Plasma protein binding, rat; type: in vitro ADME; conditions: rat, plasma, pH 7.4, rat plasma, bound; read-out: PPB rat (converted)
Description: as §7, §8, §9, §10

[12] = molecular target: T1, human TREK-1 (hTREK-1) (Homo sapiens, UniProt O95069); assay: TREK-1 thallium flux assay (CHO-K1 cells stably expressing hTREK-1); type: cell-based; conditions: human TREK-1, thallium flux; read-out: h TREK-1 Tl+ IC50
T1 construct: expressed in transfected cells
T1 sequence (O95069 1-426): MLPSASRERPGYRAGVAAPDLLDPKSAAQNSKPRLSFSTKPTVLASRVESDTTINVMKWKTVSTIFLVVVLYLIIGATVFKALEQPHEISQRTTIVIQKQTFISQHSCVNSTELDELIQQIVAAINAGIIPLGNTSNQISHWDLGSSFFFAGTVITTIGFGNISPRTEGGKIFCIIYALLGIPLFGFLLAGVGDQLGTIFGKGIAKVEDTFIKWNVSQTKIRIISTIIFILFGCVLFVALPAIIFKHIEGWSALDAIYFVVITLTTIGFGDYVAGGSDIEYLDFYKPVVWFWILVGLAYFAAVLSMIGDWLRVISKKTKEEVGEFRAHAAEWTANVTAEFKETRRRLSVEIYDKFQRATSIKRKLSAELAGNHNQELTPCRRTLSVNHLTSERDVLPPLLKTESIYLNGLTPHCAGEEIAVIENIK
Description: Procedures for Biological Experiments
TREK-1 Thallium flux assay
CHO-K1 cells stably expressing hTREK-1 were cultured in T225 flask. The cells were loaded with FluxOR dye and plated in 384 well plate at the experiment day. Test compounds or control compound (tert-butyl (3-((4-(benzyloxy)-2-methylphenyl)carbamoyl)-4-chlorophenyl)carbamate) or 0.3% DMSO (vehicle control) were added directly to the cell plates and incubated for 10 min, and then treated with thallium stimulus buffer to initiate thallium flux.
To measure the efficacy and potency of test compounds, the change in fluorescence intensity (ΔRatio) and % inhibition were calculated using the following equations:
ΔRatio = (fluorescence intensity at 25 seconds after thallium addition)/(average of fluorescent intensity before thallium addition)
0.3% DMSO - ΔRatio of 10 μM control compound)}x100
% inhibition vs compound concentration were plotted in XLfit and calculated IC50.
CHO-K1 cells stably expressing human TREK-1 (hTREK-1) were cultured in T225 flask.
The cells were loaded with FluxOR dye and plated in 384 well plate at the experiment day. Test compounds or control compound (tert-butyl (3-((4-(benzyloxy)-2-methylphenyl)carbamoyl)-4-chlorophenyl)carbamate) or 0.3% DMSO (vehicle control) which were prepared on separate plates were added to the cell plates and incubated for 10 min, and then the cells with test compounds or […]
chlorophenyl)carbamate) or 0.3% DMSO (vehicle control) were treated with thallium stimulus buffer to initiate thallium flux. To measure the efficacy and potency of test compounds, the change in fluorescence intensity (ΔRatio) and % inhibition were calculated using the following equations: […]

[13] = Rat in vivo PK (plasma clearance) in SAR tables; conditions: read-out: Rat CLp
[14] = Rat brain to plasma ratio (Kp, Kp,uu); type: in vivo; conditions: male, Sprague Dawley, brain and plasma, intravenous, 0.2 mg/kg; rat brain:plasma
Description: Determination of brain to plasma ratio:
All animal study procedures were approved by the Institutional Animal Care and Use Committee and were conducted in accordance with the National Institutes of Health regulations of animal care covered in Principles of Laboratory Animal Care (National Institutes of Health). All rats were fasted overnight prior to testing.
For determination of the brain over plasma ratio (Kp), compounds were formulated in 8% ethanol, 32% PEG400 and 60% DMSO (v/v/v) and administered as a single 0.2 mg/kg IV dose (1 mL/kg) to male, Sprague Dawley rats (n = 1) via injection into a surgically-implanted jugular vein catheter. At 15 min post dosing, blood sample was collected into chilled, K2EDTA anticoagulant-fortified tube and immediately placed on wet ice. The blood sample was then centrifuged (1700 rcf, 5 minutes, 4 °C) to obtain plasma sample. At the same post-administration time point, whole brain sample was obtained by rapid dissection, rinsed with PBS, and immediately frozen in individual tissue collection box (dry ice). All brain and plasma samples were stored at -80 °C until […]
Sample Analysis: Concentrations in plasma and brain homogenates were quantified by liquid chromatography tandem mass spectrometry (LC-MS/MS). Whole brains were homogenized in 3 mL of 70:30 IPA:water in a mini bead beater for 3 min, and centrifuged at 3,500 g for 5 min. 5 uL of the supernatant was diluted in 15 uL of blank plasma for quantification of the analytes. Plasma samples were centrifuged at 3,500 g for 5 min. A standard curve was generated by diluting the analytes DMSO stocks with blank plasma to obtain a final concentration of 10,000 ng/ml followed by a serial dilution down to 0.5 ng/ml. Quality controls were generated by a serial dilution of the 5,000 ng/ml standard curve solution in blank plasma to obtain 3 concentrations of 500, 50, and 5 ng/ml. 20 uL of brain diluted in plasma, plasma, blank plasma, standard curve and QC samples were loaded in a V-bottom 96-well plate. 120 uL of acetonitrile containing 0.05 uM carbamazepine (internal standard) was added to each well and the plate was centrifuged at 3,500 g for 5 min. 60 uL of the supernatant of each well (protein free) was transferred to a new 96-well plate containing 60 uL of water. The plates were sealed for analysis by LC-MS/MS.
Plasma and brain tissue samples originating from in vivo studies were analyzed by electrospray ionization using an AB Sciex Q-TRAP 5500 (Foster City, CA) that was coupled to a Shimadzu LC-20AD pump (Columbia, MD) and a Leap Technologies CTC PAL auto-sampler (Carrboro, NC). Analytes were separated by gradient elution using a C18 column (3 x 50 mm, 3 mm; Fortis Technologies Ltd, Cheshire, UK) that was thermostated at 40 °C. HPLC mobile phase A was 0.1% formic acid in water (pH unadjusted); mobile phase B was 0.1% formic acid in acetonitrile (pH […]
min, with an isocratic hold for 0.5 min, before transitioning to 10% B over 0.05 min. The column was re-equilibrated (1 min) before the next sample injection. The total run time was 2.55 min, and the HPLC flow rate was 0.5 ml/min. The source temperature was set at 500 °C, and mass spectral analyses were performed using a Turbo-Ion spray source in positive ionization mode (5.0-kV spray voltage) and using multiple-reaction monitoring of transitions specific for the analytes. All data were analyzed using AB Sciex Analyst 1.5.1 software.
Brain plasma concentration ratio (Kp) was calculated by dividing brain concentration by plasma concentration for each animal. Unbound brain to unbound plasma concentration ratio (Kp,uu) is calculated using the following formula: Kp,uu = (Brain ng/g x brain fu)/(plasma ng/ml x plasma fu).
In-vitro determination of blood-brain barrier penetration potential
Blood-brain barrier penetration was determined using MDR1-MDCK cell monolayers by Absorption Systems, following their protocol. In short, compounds were incubated at […] final concentration on one side of the cell monolayer for 2 hours. […]

CLint scaled at 1 µM [6] | fraction unbound at 6 h, 5 µM [7] | CLint scaled at 1 µM [8] | CLint scaled [9] | fraction unbound at 6 h, 5 µM [10] | fraction unbound at 6 h, 5 µM [11] | pIC50 [12] | clearance [13] | Kp at 15 min [14] | Compound | MED, MK-801 mouse NOR [1] | aqueous solubility [2] | brain homogenate binding rat [3] | ChromatoLogD [4] | brain homogenate binding mouse [5]
– | – | – | – | – | – | – | – | – | Cc1cc(C#Cc2ccc(F)cc2)cnc1NC(=O)c1cc(NC(=O)OC(C)(C)C)ccc1Cl [Compound 5] | 10 mg/kg | < 5 µM | > 99.9% | 5.16 | 99.4%
72 mL/min/kg | 0.039 | 16 mL/min/kg | 340 mL/min/kg | 0.022 | – | – | – | – | CC(=O)N1CC(F)(Cn2ncc(Cl)c2C(=O)Nc2ncc(C#Cc3ccccc3)cc2C)C1 [Compound 15e, 1-((1-Acetyl-3-fluoroazetidin-3-yl)methyl)-4-chloro-N-(3-methyl-5-(phenylethynyl)pyridin-2-yl)-1H-pyrazole-5-carboxamide] | – | – | – | – | –
– | 0.012 | – | – | 0.008 | 0.016 | 6.89 | 27.8 mL/min/kg | 0.97 | CC(=O)N[C@H]1CC[C@@H](n2ncc(Cl)c2C(=O)Nc2ncc(C#Cc3ccccc3)cc2C)CC1 [Compound 15f, 1-(cis-4-Acetamidocyclohexyl)-4-chloro-N-(3-methyl-5-(phenylethynyl)pyridin-2-yl)-1H-pyrazole-5-carboxamide] | – | – | – | – | –
